Usually half-life stands for the time needed for the level to fall by half in the phase considered. A lower half-life goes with fast loss. What is called IC50 is the concentration needed to halve the response being measured.

A short description of data set [1]: Half life after oral dosing in rats. Type of data set: ADME, organism-based. The settings on record: rat, in vivo.
For the next data set, the species on record is Homo sapiens. Kind of data set: Tested for the inhibition of leukotriene biosynthesis in human whole blood. It counts as functional.

The compound `NC(=O)N(O)C/C=C/c1cccc(Oc2ccccc2)c1` had a half-life in data set [1] of 90 min. Moreover, the IC50 in the data set filed under Homo sapiens turned out to be 90 nM.

For `NC(=O)N(O)CCNC(=O)c1cccc(Oc2ccccc2)c1`, in data set [1], the half-life was 216 min. In the data set filed under Homo sapiens, this compound returned an IC50 of 230 nM.

Values taken from ChEMBL document CHEMBL1152010, “Synthesis of new amide-linked N-hydroxyurea 5-lipoxygenase inhibitors by an intramolecular oxygen to nitrogen acyl transfer” (Bioorg Med Chem Lett, 1993).
